Patent US20120219638A1, “Method and Compositions for Treating Plant Infections” (priority 2006, published 2012)

Key:
[1] = system: apple varieties (Gala, Fuji, and Golden); experiment: Phytotoxicity of leaf and fruit on treated apple trees; format: in vivo; conditions: standard, concentration not given; for Phytotoxicity (leaf) (average): rating 0 (none) to 4 (50-100% of leaf area necrotic); for Phytotoxicity (fruit) (average): rating 0 (none) to 4 (severe deformation)
Protocol: (§1) Three apple varieties (Gala, Fuji, and Golden) were treated with one spray of oxysilver at full-bloom. There were a total of eight treatments: 1. Untreated control, 2. Streptomycin standard, 3. Oxytetracycline standard, 4. Oxysilver compound 0.005% (w/v), 5. Oxysilver compound 0.05%, 6. Oxysilver compound 0.1%, 7. Oxysilver compound 0.5%, and 8. Oxysilver compound 1.0%. The trees were evaluated once a week for disease severity and phytotoxicity. Apples were harvested. Each treatment and variety combination was repeated four times. Disease incidence through blossom infections was monitored. Infections four weeks or so after bloom are not due to blossom infections and are not typically treated by growers.
(§2) Disease incidence was recorded as the number of trees showing infections per treatment. Disease severity was rated as follows: 0—No disease, 1—One—two infected shoots, 2—Two-four infected shoots, 3—Four or more infected shoots or one systemic canker, 4—Two or more systemic cankers. […] After harvest, apples from untreated trees and trees treated with 0.005% and 1% oxysilver compound were sent to an independent lab for testing of silver accumulation in the fruit. For comparison, oxysilver compound was sprayed directly on some apples.
(§3) Statistical analysis was done using SAS 9.3 Proc glimmix and Proc GLM.

[2] = system: Erwinia amylovora (fire blight); experiment: Fire blight field trial on apple trees, one spray at full bloom: disease incidence and severity; format: in vivo; conditions: for Disease incidence (# of trees): standard, concentration not given, one spray at full bloom
Protocol: Experimental design: Three cultivars, 8 treatments and four blocks. In each block there is one tree per cultivar per treatment (four trees per cultivar per treatment). Treatments are randomized within each cultivar in each block.
When the forecast predicts favorable conditions, treatments were applied within 24-48 hours. Note: Oxysilver compound was a mixture of oxysilver bisulphate and oxysilver nitrate, with oxysilver bisulphate as the dominant compound.
as §1, §2, §3

Structure (SMILES)	Phytotoxicity (leaf) (average) [1]	Phytotoxicity (fruit) (average) [1]	Disease incidence (# of trees) [2]	Disease severity compared with untreated control ([2]; all oxysilver treatments and streptomycin standard, p=0.05, systemic cankers in untreated control)
CN(C)[C@@H]1C(O)=C(C(N)=O)C(=O)[C@@]2(O)C(O)=C3C(=O)c4c(O)cccc4[C@@](C)(O)[C@H]3[C@H](O)[C@@H]12 [Oxytetracycline, oxytetracycline]	0 c	0 c	1 ab # of trees	–
[H]/N=C(/N)N[C@H]1[C@H](O)[C@@H](O)[C@H](O[C@@H]2O[C@@H](C)[C@](O)(C=O)[C@H]2O[C@@H]2O[C@@H](CO)[C@H](O)[C@@H](O)[C@@H]2NC)[C@@H](N/C(N)=N\[H])[C@@H]1O [Streptomycin, streptomycin]	0 c	0 c	1 ab # of trees	significantly higher in the untreated control
